Laboratory results taken from the NIST ThermoML archive (doi:10.1021/acs.jced.5b00242).

Columns and labels:
[1] = refractive index (Na D-line) (dimensionless); xn = mol fraction of the nth substance listed; details: 101 kPa, Liquid, Standard Abbe refractometry
[2] = xn = mol fraction of the nth substance listed; details: 101 kPa, Liquid; for viscosity: Stabinger Viscometer; for mass density: Vibrating tube method

CCn1cc[n+](C)c1.NCCS(=O)(=O)[O-] [1-ethyl-3-methylimidazolium taurinate] + CCn1cc[n+](C)c1.N#C[C-](C#N)C#N
Details	mass density, [2] [kg/m3]	refractive index, [1]	viscosity, [2] [mPa·s]
293.15 K, x2 = 0	1255	1.5135	760.89
293.15 K, x2 = 0.2503	1207.7	1.51268	250.33
293.15 K, x2 = 0.5001	1164.8	1.51322	84.5
293.15 K, x2 = 0.7496	1124.1	1.51365	35.42
298.15 K, x2 = 0	1251.5	1.51217	514.67
298.15 K, x2 = 0.2503	1204.4	1.51131	180.68
298.15 K, x2 = 0.5001	1161.4	1.51166	64.77
298.15 K, x2 = 0.7496	1120.6	1.5121	28.77
303.15 K, x2 = 0	1248.1	1.51084	359.36
303.15 K, x2 = 0.2503	1201.1	1.50995	133.6
303.15 K, x2 = 0.5001	1158	1.5102	50.77
303.15 K, x2 = 0.7496	1117.2	1.51054	23.71
308.15 K, x2 = 0	1244.8	1.5095	258.04
308.15 K, x2 = 0.2503	1197.9	1.50858	101.33
308.15 K, x2 = 0.5001	1154.7	1.50871	40.59
308.15 K, x2 = 0.7496	1113.8	1.50894	19.84
313.15 K, x2 = 0	1241.6	1.50816	190.44
313.15 K, x2 = 0.2503	1194.7	1.50716	78.59
313.15 K, x2 = 0.5001	1151.4	1.50723	33.04
313.15 K, x2 = 0.7496	1110.4	1.50736	16.61
318.15 K, x2 = 0	1238.6	1.5068	143.31
318.15 K, x2 = 0.2503	1191.7	1.50578	61.69
318.15 K, x2 = 0.5001	1148.2	1.50574	27.27
318.15 K, x2 = 0.7496	1107.2	1.50576	14.44
323.15 K, x2 = 0	1235.5	1.50543	110.35
323.15 K, x2 = 0.2503	1188.5	1.50436	49.65
323.15 K, x2 = 0.5001	1145	1.50428	22.83
323.15 K, x2 = 0.7496	1103.8	1.5042	12.51
328.15 K, x2 = 0	1232.4	1.50403	86.59
328.15 K, x2 = 0.2503	1185.3	1.50296	40.56
328.15 K, x2 = 0.5001	1141.7	1.50286	19.37
328.15 K, x2 = 0.7496	1100.5	1.50267	10.94
333.15 K, x2 = 0	1229.2	1.5027	69.36
333.15 K, x2 = 0.2503	1182.1	1.50159	33.69
333.15 K, x2 = 0.5001	1138.4	1.50142	16.6
333.15 K, x2 = 0.7496	1097.2	1.50113	9.52
338.15 K, x2 = 0	1226.1	1.50136	56.05
338.15 K, x2 = 0.2503	1179	1.50019	28.15
338.15 K, x2 = 0.5001	1135.2	1.49996	14.4
338.15 K, x2 = 0.7496	1093.9	1.49959	8.62
343.15 K, x2 = 0	1223	1.49997	46.1
343.15 K, x2 = 0.2503	1175.9	1.49878	23.86
343.15 K, x2 = 0.5001	1132	1.49854	12.59
343.15 K, x2 = 0.7496	1090.6	1.4981	7.72
348.15 K, x2 = 0	1219.9	1.4986	38.4
348.15 K, x2 = 0.2503	1172.7	1.49742	20.46
348.15 K, x2 = 0.5001	1128.8	1.49709	11.1
348.15 K, x2 = 0.7496	1087.3	1.49657	6.96
353.15 K, x2 = 0	1216.8	1.49726	32.53
353.15 K, x2 = 0.2503	1169.4	1.49603	17.79
353.15 K, x2 = 0.5001	1125.6	1.49563	9.83
353.15 K, x2 = 0.7496	1083.9	1.49505	6.19
